These compounds were tested against Human immunodeficiency virus type 1 protease (Human immunodeficiency virus 1, UniProt Q72874) (assay: Inhibition of HIV-1 protease by fluorogenic substrate assay).
Work on `CC[C@H](C)[C@H](NC(=O)[C@H](CCC(N)=O)NC(=O)[C@@H]1CCCN1C(=O)CCCCCCCCCCCCCCC(=O)N[C@H](CO)C(=O)N[C@@H](C(=O)N[C@H](CC(C)C)C(=O)N[C@H](CC(N)=O)C(=O)N[C@H](Cc1ccccc1)C(=O)O)[C@H](C)O)C(=O)N[C@H](C(=O)N[C@@H](CC(C)C)C(=O)N[C@@H](Cc1c[nH]c2ccccc12)C(=O)O)[C@@H](C)O` yielded an IC50 of 2 µM. `CC[C@H](C)[C@H](NC(=O)[C@H](CCC(N)=O)NC(=O)[C@@H]1CCCN1C(=O)CCCCCC#CCCCCCC(=O)N[C@H](CO)C(=O)N[C@@H](C(=O)N[C@H](CC(C)C)C(=O)N[C@H](CC(N)=O)C(=O)N[C@H](Cc1ccccc1)C(=O)O)[C@H](C)O)C(=O)N[C@H](C(=O)N[C@@H](CC(C)C)C(=O)N[C@@H](Cc1c[nH]c2ccccc12)C(=O)O)[C@@H](C)O` gave an IC50 of 21 µM. In the case of `CC[C@H](C)[C@H](NC(=O)[C@H](CCC(N)=O)NC(=O)[C@@H]1CCCN1C(=O)CCCCCCCC#CCCCCCCCC(=O)N[C@H](CO)C(=O)N[C@@H](C(=O)N[C@H](CC(C)C)C(=O)N[C@H](CC(N)=O)C(=O)N[C@H](Cc1ccccc1)C(=O)O)[C@H](C)O)C(=O)N[C@H](C(=O)N[C@@H](CC(C)C)C(=O)N[C@@H](Cc1c[nH]c2ccccc12)C(=O)O)[C@@H](C)O`, the IC50 is reported as 7.2 µM. With `CC[C@H](C)[C@H](NC(=O)[C@H](CCC(N)=O)NC(=O)[C@@H]1CCCN1C(=O)CCCCCCC/C=C\CCCCCCCC(=O)N[C@H](CO)C(=O)N[C@@H](C(=O)N[C@H](CC(C)C)C(=O)N[C@H](CC(N)=O)C(=O)N[C@H](Cc1ccccc1)C(=O)O)[C@H](C)O)C(=O)N[C@H](C(=O)N[C@@H](CC(C)C)C(=O)N[C@@H](Cc1c[nH]c2ccccc12)C(=O)O)[C@@H](C)O` the IC50 was 4.4 µM. `CC[C@H](C)[C@H](NC(=O)[C@H](CCC(N)=O)NC(=O)[C@@H]1CCCN1C(=O)CCCCC/C=C\CCCCCC(=O)N[C@H](CO)C(=O)N[C@@H](C(=O)N[C@H](CC(C)C)C(=O)N[C@H](CC(N)=O)C(=O)N[C@H](Cc1ccccc1)C(=O)O)[C@H](C)O)C(=O)N[C@H](C(=O)N[C@@H](CC(C)C)C(=O)N[C@@H](Cc1c[nH]c2ccccc12)C(=O)O)[C@@H](C)O` gave an IC50 of 32.7 µM. For `CC[C@H](C)[C@H](NC(=O)[C@H](CCC(N)=O)NC(=O)[C@@H]1CCCN1C(=O)CCCCCCCCCCCCC(=O)N[C@H](CO)C(=O)N[C@@H](C(=O)N[C@H](CC(C)C)C(=O)N[C@H](CC(N)=O)C(=O)N[C@H](Cc1ccccc1)C(=O)O)[C@H](C)O)C(=O)N[C@H](C(=O)N[C@@H](CC(C)C)C(=O)N[C@@H](Cc1c[nH]c2ccccc12)C(=O)O)[C@@H](C)O`, the IC50 was 13 µM. `CC[C@H](C)[C@H](NC(=O)[C@H](CCC(N)=O)NC(=O)[C@@H]1CCCN1C(=O)CCCCCCCCCCCCCCCCC(=O)N[C@H](CO)C(=O)N[C@@H](C(=O)N[C@H](CC(C)C)C(=O)N[C@H](CC(N)=O)C(=O)N[C@H](Cc1ccccc1)C(=O)O)[C@H](C)O)C(=O)N[C@H](C(=O)N[C@@H](CC(C)C)C(=O)N[C@@H](Cc1c[nH]c2ccccc12)C(=O)O)[C@@H](C)O` was tested, and the IC50 was 4 µM. Work on `CC[C@H](C)[C@H](NC(=O)[C@H](CCC(N)=O)NC(=O)[C@@H]1CCCN1C(=O)CCCCCCC/C=C/CCCCCCCC(=O)N[C@H](CO)C(=O)N[C@@H](C(=O)N[C@H](CC(C)C)C(=O)N[C@H](CC(N)=O)C(=O)N[C@H](Cc1ccccc1)C(=O)O)[C@H](C)O)C(=O)N[C@H](C(=O)N[C@@H](CC(C)C)C(=O)N[C@@H](Cc1c[nH]c2ccccc12)C(=O)O)[C@@H](C)O` yielded an IC50 of 6.3 µM. `CC[C@H](C)[C@H](NC(=O)[C@H](CCC(N)=O)NC(=O)[C@@H]1CCCN1C(=O)CCCCC/C=C/CCCCCC(=O)N[C@H](CO)C(=O)N[C@@H](C(=O)N[C@H](CC(C)C)C(=O)N[C@H](CC(N)=O)C(=O)N[C@H](Cc1ccccc1)C(=O)O)[C@H](C)O)C(=O)N[C@H](C(=O)N[C@@H](CC(C)C)C(=O)N[C@@H](Cc1c[nH]c2ccccc12)C(=O)O)[C@@H](C)O` showed an IC50 of 51.5 µM. Work on `CC[C@H](C)[C@H](NC(=O)[C@H](CCC(N)=O)NC(=O)[C@@H]1CCCN1C(=O)CCCCCC/C=C/CCCCCCC(=O)N[C@H](CO)C(=O)N[C@@H](C(=O)N[C@H](CC(C)C)C(=O)N[C@H](CC(N)=O)C(=O)N[C@H](Cc1ccccc1)C(=O)O)[C@H](C)O)C(=O)N[C@H](C(=O)N[C@@H](CC(C)C)C(=O)N[C@@H](Cc1c[nH]c2ccccc12)C(=O)O)[C@@H](C)O` yielded an IC50 of 17.5 µM. `CC[C@H](C)[C@H](NC(=O)[C@H](CCC(N)=O)NC(=O)[C@@H]1CCCN1C(=O)CCCCCCC#CCCCCCCC(=O)N[C@H](CO)C(=O)N[C@@H](C(=O)N[C@H](CC(C)C)C(=O)N[C@H](CC(N)=O)C(=O)N[C@H](Cc1ccccc1)C(=O)O)[C@H](C)O)C(=O)N[C@H](C(=O)N[C@@H](CC(C)C)C(=O)N[C@@H](Cc1c[nH]c2ccccc12)C(=O)O)[C@@H](C)O` gave an IC50 of 4.5 µM. Compound `CC[C@H](C)[C@H](NC(=O)[C@H](CCC(N)=O)NC(=O)[C@@H]1CCCN1C(=O)CCCCCC/C=C\CCCCCCC(=O)N[C@H](CO)C(=O)N[C@@H](C(=O)N[C@H](CC(C)C)C(=O)N[C@H](CC(N)=O)C(=O)N[C@H](Cc1ccccc1)C(=O)O)[C@H](C)O)C(=O)N[C@H](C(=O)N[C@@H](CC(C)C)C(=O)N[C@@H](Cc1c[nH]c2ccccc12)C(=O)O)[C@@H](C)O` has an IC50 of 12.9 µM.
